Reference: patent US20240201204A1, “Biomarker and Druggable Target of Neurodegeneration” (University Hospitals Cleveland Medical Center, priority 2020, published 2024)

Legend:
tau = experiment: Tau mislocalization after TBI (tau and NeuN immunohistochemistry); type: in vivo, mouse; conditions: vs. TBI+Vehicle
Method: (§1) Drug preparation and administration: CGP3466B (Sigma-Aldrich, SML1941) was dissolved in DMSO and then diluted in sterile saline. The final working stock was 0.0014 mg/ml for administering the 0.014 mg/kg dose. Intraperitoneal administration of CGP3466B was initiated 15 min or 24 h after injury, and tissues were harvested 6 h (for SNO-GAPDH, SNO-SIRT1 measurement) or 2 weeks (for ac-tau measurement) later, respectively. Salsalate (AdipoGen, AG-CR1-3574) was dissolved in DMSO and then diluted in sterile PBS. The final working stocks were as follows: 2.5 mg/ml (25 mg/kg dose), 1 mg/ml (10 mg/kg dose), 0.5 mg/ml (5 mg/kg dose). Daily intraperitoneal administration of salsalate was initiated 24 hr after injury and continued throughout behavioral testing. P7C3-A20 and FK866 (Sigma-Aldrich, F8557) were first dissolved in 1 vol of DMSO, followed by addition of 4 vol of Kolliphor and vigorously vortexing. The solution was then diluted with 30 vol of filtered 5% dextrose (pH 7.0). EX527 (Selleckchem, S1541) was dissolved in 1% DMSO+30% polyethylene glycol+1% Tween 80. Daily intraperitoneal administration of P7C3-A20 was initiated 24 hr after poly-traumatic brain injury. EX527 (10 mg/kg) was administer once a day and FK866 was treated twice per day, with the first injection given at the same time as P7C3-A20 (20 mg/kg) and the second injection given 6 h later (LoCoco et al., 2017 eLife). Diflunisal was first dissolved in 1 vol of DMSO, followed by addition of 2 vol of Kolliphor and vigorously vortexing. The solution was then diluted with 7 vol of saline to the appropriate concentration for administration at 25, 50, or 100 mg/kg.
(§2) The pressure in the side not containing the mouse was increased to cause membrane rupture at 20 pounds per square inch (PSI), which generates an about 1-2 ms jet airflow of 137.9+/−13.79 kPa that passes through the animal's head. The head remains untethered in a padded holder, while the body is fully shielded by a metal tube. The jet of air produced upon membrane rupture provides a concussive injury, which is followed by acceleration/deceleration of the head and then exposure to the ensuing blast wave within an enclosed space.
Immunohistochemistry: Mice were transcardially perfused with cold 1× phosphate-buffered saline (PBS) followed by 4% paraformaldehyde in PBS at pH 7.4 under anesthesia. Brains were carefully removed and post-fixed in 4% paraformaldehyde overnight at 4° C. Brains were immersed in 30% sucrose in PBS for 72 h at 4° C. and then rapidly frozen in 2-methylbutane pre-cooled to −20° C. with dry ice. Brains were cut coronally (40 μm) and sections were stored in cryoprotective solution (150 mM Ethylene glycol, 100 mM glycerol, 250 mM PBS) at −20° C. […]

axon initial segment = experiment: Axon initial segment (AIS) degradation after TBI (AnkG, βIV-spectrin staining); type: in vivo, mouse; conditions: vs. TBI+Vehicle
Method: as §1, §2
Immunohistochemistry: Mice were transcardially perfused with cold 1× phosphate-buffered saline (PBS) followed by 4% paraformaldehyde in PBS at pH 7.4 under anesthesia. Brains were carefully removed and post-fixed in 4% paraformaldehyde overnight at 4° C. Brains were immersed in 30% sucrose in PBS for 72 h at 4° C. and then rapidly frozen in 2-methylbutane pre-cooled to −20° C. with dry ice. Brains were cut coronally (40 μm) and sections were stored in cryoprotective solution (150 mM Ethylene glycol, 100 mM glycerol, 250 mM PBS) at −20° C. For tau and NeuN staining, sections were washed three times with PBS for 5 min and then treated with 0.2% Triton X-100 in PBS for 15 min. Sections were washed with PBS and then incubated with 100 mM glycine for 15 min. After blocking sections using blocking buffer (1% bovine serum albumin, 10% normal goat serum, 0.3 M glycine) for 30 min, primary antibodies (Tau, Invitrogen, #13-6400, 1:100, NeuN, EMD Millipore Cor., #MABN-140, 1:500) were incubated overnight at 4° C. Sections were washed three times with PBS (5 min each) and then incubated with Alexa Fluor 488 goat anti-mouse (Invitrogen, A11001, 1:200) or Alexa Fluor 568 goat anti-rabbit (Life technologies, A11011, 1:200) at room temperature for 2 h. […]

[1] = patients with pediatric and adolescent congenital muscular dystrophy; cited from earlier work
degenerating axons = experiment: Axon degeneration after TBI (silver staining); type: in vivo, mouse; conditions: vs. TBI+Vehicle
Method: as §1, with “Diflunisal was first dissolved in 1 vol of DMSO, followed by addition of 2 vol of Kolliphor and vigorously vortexing. The solution was then diluted with 7 vol of saline to the appropriate concentration for administration at 25, 50, or 100 mg/kg.” left out

C57BL/6J mice = experiment: Barnes maze task of learning and memory after TBI; type: in vivo, mouse
Method: as §1, §2
Barnes maze: The Barnes maze apparatus consisted of a gray circular platform (91 cm in diameter and 90 cm in height), with 20 equally spaced holes 5 cm in diameter along the perimeter (Stoelting Co.). One of these holes contained a recessed escape chamber located under the platform. Four different and equally-spaced visual cues with different shapes and colors were hung on a black circular curtain surrounding the maze. […] Total and primary latency were measured during training days, and latency to first nose pokes in escape hole and time spent in target quadrant were measured for memory test on the probe trial day. […]

IL-1β = IL-1β expression in cerebral cortex after TBI (qPCR); type: in vivo, mouse; conditions: 25 mg/kg salsalate
Method: as §1, with “Diflunisal was first dissolved in 1 vol of DMSO, followed by addition of 2 vol of Kolliphor and vigorously vortexing. The solution was then diluted with 7 vol of saline to the appropriate concentration for administration at 25, 50, or 100 mg/kg.” left out

[2] = Body weight during treatment after TBI; type: in vivo, mouse; conditions: salsalate daily IP from 24 h after TBI
Method: as §1, with “Intraperitoneal administration of CGP3466B was initiated 15 min or 24 h after injury, and tissues were harvested 6 h (for SNO-GAPDH, SNO-SIRT1 measurement) or 2 weeks (for ac-tau measurement) later, respectively.” left out, “P7C3-A20” left out, “[…])” for “S1541)”, “Diflunisal was first dissolved in 1 vol of DMSO, followed by addition of 2 vol of Kolliphor and vigorously vortexing.” left out

[3] = low-dose salsalate daily IP from 24 h after TBI

## C#CCN(C)CC1=Cc2ccccc2Oc2ccccc21.O=C(O)/C=C\C(=O)O [CGP3466B]
tau; CGP3466B 0.014 mg/kg IP daily, initiated 24 hours after TBI
  post-TBI tau mislocalization: protects mice from post-TBI tau mislocalization
Axon initial segment; CGP3466B 0.014 mg/kg IP daily
  post-TBI AIS degradation, cerebral cortex: protects mice from post-TBI AIS degradation in the cerebral cortex
  post-TBI AIS degradation, hippocampus: protects mice from post-TBI AIS degradation in the hippocampus
[1]
  safety in Phase 1 clinical trial: shown safety
Degenerating axons; CGP3466B 0.014 mg/kg IP daily
  post-TBI axon degeneration (silver staining): protects mice from post-TBI axon degeneration
C57BL/6J mice; CGP3466B 0.014 mg/kg IP daily, initiated 24 hours after injury, vs. TBI+Vehicle
  post-TBI cognition, learning and memory phases of Barnes maze: protects mice from post-TBI impaired cognition in both learning and memory phases

## O=C(Oc1ccccc1C(=O)O)c1ccccc1O [salsalate]
IL-1β
  TBI-induced increase of IL-1β in cerebral cortex: this increase is not attenuated
[2]
  body weight: Body weight was not altered
tau; [3]
  post-TBI tau mislocalization: protects mice from post-TBI tau mislocalization
Axon initial segment; [3]
  post-TBI AIS degradation: protects mice from post-TBI AIS degradation
Degenerating axons; [3]
  post-TBI axonal degeneration: protects mice from post-TBI axonal degeneration
C57BL/6J mice; low-dose salsalate daily IP from 24 h after TBI, vs. TBI+Vehicle
  post-TBI cognitive impairment (learning and memory in the Barnes maze): protects mice from post-TBI impairments
C57BL/6J mice; salsalate daily IP from 24 h after TBI
  average speed in behavioral testing: Average speed was not affected
C57BL/6J mice; salsalate daily IP from 24 h after TBI, vs. TBI+Vehicle
  learning, primary latency during training period of the Barnes maze: improved learning as measured by primary latency
